Results taken from publication PMC11813896, “Bis(7)-harmine derivatives as potential multi-target anti-Alzheimer agents” (Frontiers in Chemistry, 2025).

Legend:
[1] = target: hAChE (Homo sapiens, UniProt P22303); assay: biochemical; conditions: for IC50: Mean ± SD from 3-5 assays, read-out: IC50 (nM) for cholinesterase hAChE
Experimental: 50 μL of hAChE (0.02 unit/mL) or hBChE (0.02 unit/mL) were incubated with 10 μL of the compound in 96-well plates at 37°C for 6 min. Subsequently, 30 μL of a substrate solution containing acetylthiocholine iodide (ATCI) or butyrylthiocholine iodide (BTCI) at a concentration of 0.01 M was added, and the mixture was further incubated at 37°C for an additional duration of 12 min.

[2] = target: hBuChE (Homo sapiens, UniProt P06276); assay: Ellman's assay, hBuChE inhibition; format: biochemical; conditions: for IC50: Mean ± SD from 3-5 assays, read-out: IC50 (nM) for cholinesterase hBuChE; for inhibition at 1 µM: compound at 1 μM, read-out: inhibition of hBuChE in primary screening
Sequence of hBuChE (P06276 29-602): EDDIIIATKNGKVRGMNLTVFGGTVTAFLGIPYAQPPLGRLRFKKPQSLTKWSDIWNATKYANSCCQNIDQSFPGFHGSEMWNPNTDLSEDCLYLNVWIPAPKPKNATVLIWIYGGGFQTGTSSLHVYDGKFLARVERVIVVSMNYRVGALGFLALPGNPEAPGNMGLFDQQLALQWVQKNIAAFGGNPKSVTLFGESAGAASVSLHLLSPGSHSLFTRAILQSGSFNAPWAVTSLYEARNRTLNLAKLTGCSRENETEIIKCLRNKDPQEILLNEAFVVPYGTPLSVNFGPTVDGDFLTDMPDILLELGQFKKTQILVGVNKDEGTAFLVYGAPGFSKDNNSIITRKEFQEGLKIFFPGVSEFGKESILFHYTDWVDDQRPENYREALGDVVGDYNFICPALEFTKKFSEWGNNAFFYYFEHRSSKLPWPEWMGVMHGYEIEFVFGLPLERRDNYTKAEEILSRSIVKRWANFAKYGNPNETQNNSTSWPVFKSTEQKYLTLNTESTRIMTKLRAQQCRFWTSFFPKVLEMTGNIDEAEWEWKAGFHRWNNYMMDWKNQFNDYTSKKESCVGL
Experimental: The Ellman’s assay was utilized to assess the inhibitory potential of novel bis(7)-harmine derivatives against hAChE and hBuChE. 50 μL of hAChE (0.02 unit/mL) or hBChE (0.02 unit/mL) were incubated with 10 μL of the compound in 96-well plates at 37°C for 6 min. Subsequently, 30 μL of a substrate solution containing acetylthiocholine iodide (ATCI) or butyrylthiocholine iodide (BTCI) at a concentration of 0.01 M was added, and the mixture was further incubated at 37°C for an additional duration of 12 min. Finally, the activity was measured by adding 150 μL of a solution containing 5,5′−dithiobis (2-nitrobenzoic acid) (DTNB) at a concentration of 0.01 M, followed by measuring absorbance at a wavelength of 415 nm using an Evolution 300 PC UV-Vis Spectrophotometer.

[3] = target: T1, recombinant hMAO-A (Homo sapiens, UniProt P21397); assay: biochemical; conditions: for IC50: mean ± SD, read-out: IC50 (nM) for monoamine oxidases hMAO-A; for inhibition at 1 µM: compound at 1 μM, read-out: inhibition of hMAO-A in primary screening
T1 construct: purchased Sigma-Aldrich
T1 sequence (P21397 1-527): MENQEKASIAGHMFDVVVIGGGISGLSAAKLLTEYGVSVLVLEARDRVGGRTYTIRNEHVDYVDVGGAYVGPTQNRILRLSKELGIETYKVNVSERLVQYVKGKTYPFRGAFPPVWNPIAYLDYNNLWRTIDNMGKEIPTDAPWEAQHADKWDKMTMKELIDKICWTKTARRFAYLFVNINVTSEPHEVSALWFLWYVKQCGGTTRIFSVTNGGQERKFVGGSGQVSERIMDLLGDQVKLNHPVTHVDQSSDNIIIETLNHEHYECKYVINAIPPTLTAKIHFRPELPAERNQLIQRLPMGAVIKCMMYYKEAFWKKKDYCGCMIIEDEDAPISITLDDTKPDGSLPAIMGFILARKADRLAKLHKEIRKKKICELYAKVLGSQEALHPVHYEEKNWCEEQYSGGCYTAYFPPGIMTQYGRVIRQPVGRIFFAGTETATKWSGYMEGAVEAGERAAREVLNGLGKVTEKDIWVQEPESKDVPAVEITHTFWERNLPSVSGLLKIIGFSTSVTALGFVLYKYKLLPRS
Experimental: (§1) Briefly, the compounds under investigation and the reference inhibitor were preincubated with kynuramine at 37°C for 10 min in 96-well microplates. […] The enzymatic reactions were terminated by adding 400 μL of 2 N NaOH and 1,000 μL of water, followed by centrifugation at 16,000 g for 10 min. Subsequently, the concentrations of MAOs that produced 4-hydroxyquinoline were determined by measuring the fluorescence of the supernatant using a Varioskan Flash Multimode Reader ([…]) with excitation and emission wavelengths set at 310 nm and 400 nm, respectively. The IC50 values were calculated from dose-response curves and expressed as the mean ± standard deviation. These values were determined based on at least three independent experiments, each performed in triplicate.

[4] = target: T2, recombinant hMAO-B (Homo sapiens, UniProt P27338); assay: biochemical; conditions: for inhibition at 1 µM: compound at 1 μM, read-out: inhibition of hMAO-B in primary screening; for IC50: mean ± SD, read-out: IC50 (nM) for monoamine oxidases hMAO-B
T2 construct: purchased Sigma-Aldrich
T2 sequence (P27338 1-520): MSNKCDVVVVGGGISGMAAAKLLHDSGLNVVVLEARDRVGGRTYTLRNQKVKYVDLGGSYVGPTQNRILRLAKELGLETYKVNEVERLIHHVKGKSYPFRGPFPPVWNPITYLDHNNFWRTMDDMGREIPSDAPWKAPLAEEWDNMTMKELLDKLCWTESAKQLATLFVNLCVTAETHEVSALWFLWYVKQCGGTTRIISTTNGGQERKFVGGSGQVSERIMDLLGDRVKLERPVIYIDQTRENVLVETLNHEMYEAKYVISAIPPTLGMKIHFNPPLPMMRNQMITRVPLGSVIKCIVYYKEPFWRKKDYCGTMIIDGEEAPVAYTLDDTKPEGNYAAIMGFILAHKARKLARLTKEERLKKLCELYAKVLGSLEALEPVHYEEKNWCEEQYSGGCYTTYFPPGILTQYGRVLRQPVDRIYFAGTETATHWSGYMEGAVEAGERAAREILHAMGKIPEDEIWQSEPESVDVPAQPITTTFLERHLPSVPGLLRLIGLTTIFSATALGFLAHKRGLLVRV
Experimental: as §1

[5] = target: Aβ 1−42 (Homo sapiens, UniProt P05067); assay: Thioflavin T fluorescence assay, Aβ 1−42 self-aggregation; format: biochemical; conditions: for inhibition percent ratio of self-induced Aβ 1-42 aggregation: compound at 20 μM; for IC50: Aβ 1-42 20 μM, 37°C, 24 h
Sequence of Aβ 1−42 (P05067 672-713 limits assumed): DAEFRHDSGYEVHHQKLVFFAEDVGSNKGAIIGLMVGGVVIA
Experimental: The thioflavin T (Th-T) fluorescence assay was used to assess the inhibition of Aβ 1−42 self-aggregation. […] Subsequently, the reaction was terminated to a final volume of 200 μL using Th-T (10 μM) solution.

Sequence of hAChE (P22303 32-614): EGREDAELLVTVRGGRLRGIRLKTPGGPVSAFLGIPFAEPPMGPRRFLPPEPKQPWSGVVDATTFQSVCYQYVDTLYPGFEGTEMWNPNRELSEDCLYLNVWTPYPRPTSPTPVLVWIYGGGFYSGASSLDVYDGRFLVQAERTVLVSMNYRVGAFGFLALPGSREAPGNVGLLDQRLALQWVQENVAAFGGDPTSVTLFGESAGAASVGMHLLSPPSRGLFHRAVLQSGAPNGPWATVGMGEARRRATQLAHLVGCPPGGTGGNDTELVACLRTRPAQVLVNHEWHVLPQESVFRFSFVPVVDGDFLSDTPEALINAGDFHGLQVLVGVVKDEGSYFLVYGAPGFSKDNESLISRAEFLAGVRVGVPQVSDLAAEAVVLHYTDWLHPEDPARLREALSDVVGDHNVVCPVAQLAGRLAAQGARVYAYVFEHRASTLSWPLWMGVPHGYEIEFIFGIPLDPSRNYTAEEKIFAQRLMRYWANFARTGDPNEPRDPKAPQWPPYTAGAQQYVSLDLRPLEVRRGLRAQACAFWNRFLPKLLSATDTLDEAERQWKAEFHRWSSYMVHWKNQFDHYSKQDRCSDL

SMILES	S.I. Selectivity index IC50(hBuChE)/IC50(hAChE) [1]	IC50 [1]	IC50 [2]	S.I. Selectivity index IC50(hMAO-B)/IC50(hMAO-A) [3]	IC50 [3]	inhibition at 1 µM [4]	inhibition percent ratio of self-induced Aβ 1-42 aggregation [5]	inhibition at 1 µM ([1]; compound at 1 μM, read-out: inhibition of hAChE in primary screening)	inhibition at 1 µM [2]	IC50 [4]	IC50 [5]	inhibition at 1 µM [3]
Cc1nccc2c3ccc(OCCCCCOc4ccc5c6ccnc(C)c6n(C)c5c4)cc3n(C)c12 [Compound 5a, 1,5-bis ((1,9-dimethyl-9H-pyrido [3,4-b]indol-7-yl)oxy)pentane]	0.3	827 ± 41.5 nM	256 ± 15.7 nM	>4.1	241 ± 13.8 nM	25.6%	40.6%					
CCn1c2cc(OCCCCCCOc3ccc4c5ccnc(C)c5n(CC)c4c3)ccc2c2ccnc(C)c21 [Compound 6b, 1,6-bis ((9-ethyl-1-methyl-9H-pyrido [3,4-b]indol-7-yl)oxy)hexane]	0.1	652 ± 35.8 nM	86.8 ± 5.3 nM	>1.1	893 ± 59.3 nM	41.2%	40.2%					
Cc1nccc2c3ccc(OCCCCCCCCOc4ccc5c6ccnc(C)c6n(C)c5c4)cc3n(C)c12 [Compound 8a, 1,8-bis ((1,9-dimethyl-9H-pyrido [3,4-b]indol-7-yl)oxy)octane]				10.0	95.2 ± 4.9 nM			42.2%	39.1%	954 ± 49.8 nM	16.5 ± 0.4 µM	
Cc1nccc2c3ccc(OCCCCCCOc4ccc5c6ccnc(C)c6n(C)c5c4)cc3n(C)c12 [Compound 6a, 1,6-bis ((1,9-dimethyl-9H-pyrido [3,4-b]indol-7-yl)oxy)hexane]	0.7	493 ± 30.3 nM	331 ± 21.5 nM	7.1	123 ± 7.2 nM					863 ± 61.3 nM	19.8 ± 1.1 µM	
CCCn1c2cc(OCCCCCCOc3ccc4c5ccnc(C)c5n(CCC)c4c3)ccc2c2ccnc(C)c21 [Compound 6c, 1,6-bis ((1-methyl-9-propyl-9H-pyrido [3,4-b]indol-7-yl)oxy)hexane]	12.1	82.1 ± 6.9 nM	994 ± 73.4 nM	25.2	21 ± 1.18 nM		35.8%			529 ± 38.7 nM		
CCCn1c2cc(OCCCCCOc3ccc4c5ccnc(C)c5n(CCC)c4c3)ccc2c2ccnc(C)c21 [Compound 5c, 1,5-bis ((1-methyl-9-propyl-9H-pyrido [3,4-b]indol-7-yl)oxy)pentane]	>13.7	73.8 ± 4.28 nM				27.5%	29.4%		45.6%			39.5%
CCCn1c2cc(OCCCCOc3ccc4c5ccnc(C)c5n(CCC)c4c3)ccc2c2ccnc(C)c21 [Compound 4c, 1,4-bis ((1-methyl-9-propyl-9H-pyrido [3,4-b]indol-7-yl)oxy)butane]	10.2	68 ± 5.1 nM	694 ± 43.2 nM			17.8%	33.2%					48.6%
